Experiment in all cases: Kinase activity inhibition assay (HTRF TK Kit), selectivity
Common to all, as to format: biochemical
For orientation: Time-resolved FRET reads energy transfer from a long-lived donor to a nearby acceptor.

One assay addresses T1, EGFR (Homo sapiens, UniProt P00533).
T1 construct: purchased Carna 08-115
From the text: (§1) In this assay, the HTRF TK Kit (Catalog No. 62TK0PEC) provided by Cisbio was used to detect the inhibitory activity of compounds on BTK kinase, BTK T474I kinase and BTK C481 S kinase and the selectivity of compounds relative to EGFR, ITK and TEC kinases.
(§2) Reagents and consumables: BTK kinase (Invitrogen, Catalog No. PV3587), BTK C481S (Carna, Product No. 08-547), BTK T474I(SignalChem Product No. B10-12HH), ITK (Cama, Product No. 08-181), EGFR (Cama, Product No. 08-115), TEC (Carna, Product No. 08-182), HTRF-TK kit (Cisbio, Product No. 62TK0PEC), MgCl2 (Sigma, Product No. M1028), MnCl2 (Sigma, Product No. M1787), DTT (Sigma, Product No. D0632), ATP (Sigma, Product No. A7699-1g), DMSO (Sigma, Product No. D2650), 384-well plate (PE, Product No. 6008280).
(§3) The entire operation steps were carried out on ice, and the total reaction volume was 10µL. A compound (4µL), substrate and ATP (4µL), and kinase (2µL) were added in sequence to a 384-well plate, and the plate was shaken for 30 seconds. The mixture was reacted at room temperature for an appropriate time, and then the detection reagent was added. The resulting mixture was reacted at room temperature for 1 hour, and then the plate was assayed with a microplate reader. The specific steps were as follows: • a) a 1 × kinase buffer solution required for the kinase assay was calculated according to the amount of the test compound, and prepared as needed; • b) 2.5 × working concentration of a compound was prepared, 100-fold gradient concentration solutions of a compound were diluted by 40 × to the desired concentration, respectively, mixed well, and added to each well at 4 µL per well; • c) 5 × working concentration of the substrate and ATP were prepared, mixed in a ratio of 1:1 before being added to the 384-well plate, and added to each well at 4 µL per well; • d) 5 × working concentration of a kinase was prepared, 2 µL of which was added to each well; • e) the plate was shaken on a microplate shaker for 30 seconds, sealed with a sealing membrane, and the mixture was reacted at room temperature for an appropriate time; • f) 4 × working concentration of streptavidin XL-665 and TK antibody-cryptate compound were prepared, mixed in a ratio of 1:1 before being added to the 384-well plate, and added to each well at 10 µL per well; • g) the mixture was reacted at room temperature for 1 hour, and then the plate was read; • h) the wells with only substrate, ATP and 1% DMSO added but no kinase were blank control wells, and the wells with only substrate, ATP, 1% DMSO and kinase were positive control wells.
(§4) Readings: The values of 620 nm (cryptate) and 665 nm (XL665) were read with a BioTek Synerg Neo2 microplate reader, the ratio of 665/620 for each well was calculated, and the data were exported.
(§5) Data analysis: IC50 was calculated using GraphPad Prism 7.0 software.
(§6) The IC50 (half-maximal inhibitory concentration) of the compound was obtained using the following nonlinear fitting formula: Y = Bottom + (Top−Bottom)/(1+10^(∧)((LogIC50−X)*HillSlope)) [formula] • X: Log value of the compound concentration • Y: Inhibition rate (% inhibition) • Top: Maximum response • Bottom: Baseline response • HillSlope: Slope of the curve
(§7) The formula for calculating kinase inhibition rate (inhibition rate %) was: [formula]

The target in a further assay is T2, ITK (Homo sapiens, UniProt Q08881).
T2 construct: purchased Carna 08-181
T2 sequence (Q08881 1-620): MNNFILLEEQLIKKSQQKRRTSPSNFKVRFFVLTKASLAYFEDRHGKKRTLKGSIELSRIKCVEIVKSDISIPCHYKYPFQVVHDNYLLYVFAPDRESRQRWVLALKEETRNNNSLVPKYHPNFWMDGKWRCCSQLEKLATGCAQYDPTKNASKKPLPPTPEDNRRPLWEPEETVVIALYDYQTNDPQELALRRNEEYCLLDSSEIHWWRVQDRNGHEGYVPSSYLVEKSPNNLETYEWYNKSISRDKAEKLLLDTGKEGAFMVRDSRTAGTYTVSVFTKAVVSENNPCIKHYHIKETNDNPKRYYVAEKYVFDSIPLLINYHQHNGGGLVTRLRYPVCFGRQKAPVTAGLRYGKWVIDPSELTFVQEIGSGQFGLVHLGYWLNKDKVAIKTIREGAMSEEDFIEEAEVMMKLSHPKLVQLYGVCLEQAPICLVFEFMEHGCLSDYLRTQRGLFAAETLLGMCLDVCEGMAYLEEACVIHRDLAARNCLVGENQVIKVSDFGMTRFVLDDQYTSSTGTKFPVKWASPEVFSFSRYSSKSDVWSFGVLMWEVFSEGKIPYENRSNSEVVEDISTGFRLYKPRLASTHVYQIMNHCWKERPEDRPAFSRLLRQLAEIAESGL
Description: as §1, §2, §3, §4, §5, §6, §7

A further assay deals with T3, TEC (Homo sapiens, UniProt P42680).
T3 construct: purchased Carna 08-182
T3 sequence (P42680 1-631): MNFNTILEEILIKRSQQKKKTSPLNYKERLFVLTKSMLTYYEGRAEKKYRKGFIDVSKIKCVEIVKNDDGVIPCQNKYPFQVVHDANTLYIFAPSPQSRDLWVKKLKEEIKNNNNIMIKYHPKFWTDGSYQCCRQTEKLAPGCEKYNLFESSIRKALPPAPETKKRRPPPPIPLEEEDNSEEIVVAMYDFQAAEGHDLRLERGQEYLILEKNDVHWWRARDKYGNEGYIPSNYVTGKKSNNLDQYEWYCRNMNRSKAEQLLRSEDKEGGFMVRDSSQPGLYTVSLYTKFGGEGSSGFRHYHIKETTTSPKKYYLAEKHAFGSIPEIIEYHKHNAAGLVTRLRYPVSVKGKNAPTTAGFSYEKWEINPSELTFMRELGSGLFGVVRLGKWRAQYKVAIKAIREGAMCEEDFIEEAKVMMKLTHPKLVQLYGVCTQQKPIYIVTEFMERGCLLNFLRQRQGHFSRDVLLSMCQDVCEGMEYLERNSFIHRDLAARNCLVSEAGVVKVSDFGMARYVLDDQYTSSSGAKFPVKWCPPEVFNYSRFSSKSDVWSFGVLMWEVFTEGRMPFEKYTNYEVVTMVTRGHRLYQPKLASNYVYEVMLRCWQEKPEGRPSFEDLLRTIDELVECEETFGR
Description: as §1, §2, §3, §4, §5, §6, §7

In general, IC50 refers to the midpoint of a concentration-inhibition curve.

T1 sequence (P00533 669-1210 limits assumed): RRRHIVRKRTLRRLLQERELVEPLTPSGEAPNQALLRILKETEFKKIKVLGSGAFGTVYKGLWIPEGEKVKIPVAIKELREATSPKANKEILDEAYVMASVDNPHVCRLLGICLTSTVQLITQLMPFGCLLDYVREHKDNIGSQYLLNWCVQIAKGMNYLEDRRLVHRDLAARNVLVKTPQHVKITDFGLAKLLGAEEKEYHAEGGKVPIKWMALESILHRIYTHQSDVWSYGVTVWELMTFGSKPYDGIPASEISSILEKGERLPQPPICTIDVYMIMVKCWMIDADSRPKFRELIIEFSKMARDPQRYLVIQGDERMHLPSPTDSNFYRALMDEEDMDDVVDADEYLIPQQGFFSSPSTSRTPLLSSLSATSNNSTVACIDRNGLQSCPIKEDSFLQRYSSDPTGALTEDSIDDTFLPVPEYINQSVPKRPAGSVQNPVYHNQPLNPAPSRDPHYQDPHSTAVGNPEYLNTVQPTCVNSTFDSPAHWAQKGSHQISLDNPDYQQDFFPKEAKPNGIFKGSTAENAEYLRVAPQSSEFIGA

Consider `COc1ccc(F)cc1C(=O)NCc1ccc(-c2ncc(-c3ncc(C)cn3)c3[nH]nc(N)c23)cc1` [Example 39, N-(4-(3-amino-7-(5-methylpyrimidin-2-yl)-1H-pyrazolo[4,3-c]pyridin-4-yl)benzyl)-5-fluoro-2-methoxybenzamide], for which the 50% inhibitory concentration (IC50) lay within 50 to 500 nM on EGFR, 50 to 500 nM at ITK and 5 to 50 nM on TEC.

As to `COc1ccc(F)cc1C(=O)NCc1ccc(-c2ncc(-c3ccc(OC(F)(F)F)cn3)c3[nH]nc(N)c23)cc1` [Example 41, N-(4-(3-amino-7-(5-(trifluoromethoxy)pyridin-2-yl)-1H-pyrazolo[4,3-c]pyridin-4-yl)benzyl)-5-fluoro-2-methoxybenzamide], the IC50 is 50 to 500 nM on EGFR, 50 to 500 nM on ITK and 5 to 50 nM on TEC.

As for `COc1ccc(F)cc1C(=O)NCc1ccc(-c2ncc(-c3ncc(C(F)(F)F)cn3)c3[nH]nc(N)c23)cc1` [Example 42, N-(4-(3-amino-7-(5-(trifluoromethyl)pyrimidin-2-yl)-1H-pyrazolo[4,3-c]pyridin-4-yl)benzyl)-5-fluoro-2-methoxybenzamide], the IC50 on EGFR is above 500 nM; on ITK, above 500 nM; at TEC it was 50 to 500 nM.

As for `COc1ccc(F)cc1C(=O)NCc1ccc(-c2ncc(-c3ccc(C4COC4)cn3)c3[nH]nc(N)c23)cc1` [Example 43, N-(4-(3-amino-7-(5-(oxetan-3-yl)pyridin-2-yl)-1H-pyrazolo[4,3-c]pyridin-4-yl)benzyl)-5-fluoro-2-methoxybenzamide], the IC50 was in the range of 5 to 50 nM at EGFR, 50 to 500 nM at ITK and 1 to 5 nM at TEC.

For the molecule `COc1ccc(F)cc1C(=O)NCc1ccc(-c2ncc(-c3cc4ncccn4n3)c3[nH]nc(N)c23)cc1` [Example 44, N-(4-(3-amino-7-(pyrazolo[1,5-a]pyrimidin-2-yl)-1H-pyrazolo[4,3-c]pyridin-4-yl)benzyl)-5-fluoro-2-methoxybenzamide], the half-maximal inhibitory concentration (IC50) on EGFR lay in the range of 5 to 50 nM; at ITK, 50 to 500 nM; on TEC it was 5 to 50 nM.

Consider `CCOC(=O)c1cnc2cc(-c3cnc(-c4ccc(CNC(=O)c5cc(F)ccc5OC)cc4)c4c(N)n[nH]c34)nn2c1` [Example 45, ethyl 2-(3-amino-4-(4-((5-fluoro-2-methoxybenzoylamino)methyl)phenyl)-1H-pyrazolo[4,3-c]pyridin-7-yl)pyrazolo[1,5-a]pyrimidine-6-carboxylate], for which the values for the IC50 at EGFR, at ITK and at TEC were 50 to 500 nM, above 500 nM and 50 to 500 nM, respectively.

`COc1ccc(F)cc1C(=O)NCc1ccc(-c2ncc(-c3ccn4nccc4n3)c3[nH]nc(N)c23)cc1` [Example 46, N-(4-(3-amino-7-(pyrazolo[1,5-a]pyrimidin-5-yl)-1H-pyrazolo[4,3-c]pyridin-4-yl)benzyl)-5-fluoro-2-methoxybenzamide]: the IC50 is 5 to 50 nM on EGFR, above 500 nM on ITK and 5 to 50 nM at TEC.

With `COc1ccc(F)cc1C(=O)NCc1ccc(-c2ncc(-c3ccc4cn[nH]c4n3)c3[nH]nc(N)c23)cc1` [Example 47, N-(4-(3-amino-7-(1H-pyrazolo[3,4-b]pyridin-6-yl)-1H-pyrazolo[4,3-c]pyridin-4-yl)benzyl)-5-fluoro-2-methoxybenzamide], the IC50 is 50 to 500 nM at EGFR, above 500 nM at ITK and 5 to 50 nM on TEC.

As for `COc1ccc(F)cc1C(=O)NCc1ccc(-c2ncc(-c3ccc(C(F)F)cn3)c3[nH]nc(N)c23)cc1` [Example 48, N-(4-(3-amino-7-(5-(difluoromethyl)pyridin-2-yl)-1H-pyrazolo[4,3-c]pyridin-4-yl)benzyl)-5-fluoro-2-methoxybenzamide], the IC50 fell in the range of 50 to 500 nM on EGFR, 50 to 500 nM on ITK and 5 to 50 nM at TEC.
